Where a name gives a salt, the structure may show the parent alone.
Molecular target: T1, human hNET (Homo sapiens, UniProt P23975)
T1 construct: expressed in transfected cells; host or cells: MDCK-Net6 (MDCK cells, stably transfected)
Test: Norepinephrine (NE) uptake assay in MDCK-Net6 cells
Format: cell-based
Settings: 1 μM test compound, [3H]NE uptake, read-out: % Inhibition @ 1 μM (hNET)
Method in brief: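 Radiolabelled NE uptake was counted by scintillation after NaOH lysis, with 1 µM desipramine defining non-specific uptake. EC50 came from a logistic dose-response fit.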

T1 sequence (P23975 whole entry): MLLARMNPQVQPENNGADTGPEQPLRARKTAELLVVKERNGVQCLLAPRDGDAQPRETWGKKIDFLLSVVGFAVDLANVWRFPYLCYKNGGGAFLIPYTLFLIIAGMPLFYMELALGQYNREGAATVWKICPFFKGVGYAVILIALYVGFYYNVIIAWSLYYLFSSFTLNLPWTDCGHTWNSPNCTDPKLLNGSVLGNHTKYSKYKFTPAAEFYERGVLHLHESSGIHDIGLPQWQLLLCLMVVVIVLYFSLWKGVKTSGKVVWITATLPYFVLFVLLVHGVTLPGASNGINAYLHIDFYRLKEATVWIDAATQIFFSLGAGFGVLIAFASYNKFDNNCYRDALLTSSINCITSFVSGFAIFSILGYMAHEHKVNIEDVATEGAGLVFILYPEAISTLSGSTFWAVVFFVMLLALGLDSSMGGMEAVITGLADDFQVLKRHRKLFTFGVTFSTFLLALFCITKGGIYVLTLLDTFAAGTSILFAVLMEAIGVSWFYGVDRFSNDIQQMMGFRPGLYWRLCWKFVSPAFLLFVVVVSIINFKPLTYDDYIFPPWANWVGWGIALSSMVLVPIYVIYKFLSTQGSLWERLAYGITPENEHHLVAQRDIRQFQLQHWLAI

SMILES | inhibition at 1 µM
C[C@@H]1CN(C[C@H](c2cccc(OC(F)(F)F)c2)C2(O)CCCCC2)C[C@H](C)N1 [Example 367, 1-{(1S)-2-[(3R,5S)-3,5-dimethylpiperazin-1-yl]-1-[3-(trifluoromethoxy)phenyl]ethyl}cyclohexanol dihydrochloride] | 94%
C[C@H]1CN(C[C@H](c2cccc(OC(F)(F)F)c2)C2(O)CCCCC2)CCN1C [Example 349, 1-{(1S)-2-[(3S)-3,4-dimethylpiperazin-1-yl]-1-[3-(trifluoromethoxy)phenyl]ethyl}cyclohexanol dihydrochloride] | 82%
Cc1ccc(-c2ccc(C(CN3CCN(C)CC3)C3(O)CCCCC3)cc2)cc1 (stereo not drawn) [Example 181, 1-[1-(4′-methyl-1,1′-biphenyl-4-yl)-2-(4-methylpiperazin-1-yl)ethyl]cyclohexanol dihydrochloride] | 31%
COc1ccc(C(CN2CCNCC2)C2(O)CCCCC2)cc1-c1cccc(OC(F)(F)F)c1 (stereo not drawn) [Example 251, 1-{1-[6-methoxy-3′-(trifluoromethoxy)-1,1′-biphenyl-3-yl]-2-piperazin-1-ylethyl}cyclohexanol dihydrochloride] | 47%
OC1(C(CN2CCNCC2)c2ccccc2-c2ccc3c(c2)OCO3)CCCCC1 (stereo not drawn) [Example 151, 1-{1-[2-(1,3-benzodioxol-5-yl)phenyl]-2-piperazin-1-ylethyl}cyclohexanol dihydrochloride] | 12%
OC1(C(CN2CCNCC2)c2ccc(OCc3ccccc3)c(OC(F)(F)F)c2)CCCCC1 (stereo not drawn) [Example 268, 1-{1-[4-(benzyloxy)-3-(trifluoromethoxy)phenyl]-2-piperazin-1-ylethyl}cyclohexanol dihydrochloride] | 84%
COc1cc(C(CN2CCN(C)CC2)C2(O)CCCCC2)ccc1OCc1ccc(Br)cc1F (stereo not drawn) [Example 447, 1-[1-{4-[(4-bromo-2-fluorobenzyl)oxy]-3-methoxyphenyl}-2-(4-methylpiperazin-1-yl)ethyl]cyclohexanol] | 97%
CN1CCN(CC(c2ccc(OCCc3ccc(F)cc3)cc2)C2(O)CCCCC2)CC1 (stereo not drawn) [Example 463, 1-[1-{4-[2-(4-fluorophenyl)ethoxy]phenyl}-2-(4-methylpiperazin-1-yl)ethyl]cyclohexanol dihydrochloride] | 69%
OC1(C(CN2CCNCC2)c2ccc(OCc3cccc(C(F)(F)F)c3)c(Cl)c2)CCCCC1 (stereo not drawn) [Example 423, 1-[1-(3-chloro-4-{[3-(trifluoromethyl)benzyl]oxy}phenyl)-2-piperazin-1-ylethyl]cyclohexanol dihydrochloride] | 79%
OC1(C(CN2CCNCC2)c2ccccc2-c2cccc(Cl)c2)CCCCC1 (stereo not drawn) [Example 150, 1-[1-(3′-chloro-1,1′-biphenyl-2-yl)-2-piperazin-1-ylethyl]cyclohexanol dihydrochloride] | 18%
OC1(C(CN2CCNCC2)c2cccc(Oc3ccccc3)c2)CCCCC1 (stereo not drawn) [Example 311, 1-[1-(3-phenoxyphenyl)-2-piperazin-1-ylethy]cyclohexanol dihydrochloride] | 86.2%
COc1ccc(C(CN2CCNCC2)C2(O)CCCCC2)cc1-c1ccc(Cl)c(Cl)c1 (stereo not drawn) [Example 252, 1-[1-(3′,4′-dichloro-6-methoxy-1,1′-biphenyl-3-yl)-2-piperazin-1-ylethyl]cyclohexanol dihydrochloride] | 35%
COc1ccc(CCOc2ccc(C(CN3CCN(C)CC3)C3(O)CCCCC3)cc2)cc1 (stereo not drawn) [Example 466, 1-[1-{{4-[2-(4-methoxyphenyl)ethoxy]phenyl}-2-(4-methylpiperazin-1-yl)ethyl]cyclohexanoldihydrochloride] | 20%
COc1cc(C(CN2CCNCC2)C2(O)CCCCC2)ccc1OCc1ccc(C(F)(F)F)cc1 (stereo not drawn) [Example 448, 1-[1-(3-methoxy-4-{[4-(trifluoromethyl)benzyl]oxy}phenyl)-2-piperazin-1-ylethyl]cyclohexanol dihydrochloride] | 78%
CN1CCN(CC(c2ccc(OCc3ccc(Br)cc3F)c(Cl)c2)C2(O)CCCCC2)CC1 (stereo not drawn) [Example 426, 1-[1-{4-[(4-bromo-2-fluorobenzyl)oxy]-3-chlorophenyl}-2-(4-methylpiperazin-1-yl)ethyl]cyclohexanol dihydrochloride] | 84%
CN1CCN(C[C@@H](c2ccc(OCc3ccccc3)c(Cl)c2)C2(O)CCCCC2)CC1 [Example 325, 1-[(1R)-1-[4-(benzyloxy)-3-chlorophenyl]-2-(4-methylpiperazin-1-yl)ethyl]cyclohexanol dihydrochloride] | 93.9%
CN1CCN(C[C@H](c2ccc(OCc3ccccc3)c(Cl)c2)C2(O)CCCCC2)CC1 [Example 326, 1-[(1S)-1-[4-(benzyloxy)-3-chlorophenyl]-2-(4-methylpiperazin-1-yl)ethyl]cyclohexanol dihydrochloride] | 99.7%
COc1cccc(-c2ccc(C(CN3CCN(C)CC3)C3(O)CCCCC3)cc2)c1 (stereo not drawn) [Example 179, 1-[1-(3′-methoxy-1,1′-biphenyl-4-yl)-2-(4-methylpiperazin-1-yl)ethyl]cyclohexanol dihydrochloride] | 27%
OC1(C(CN2CCNCC2)c2ccc(OCc3ccc(Br)cc3F)c(Cl)c2)CCCCC1 (stereo not drawn) [Example 425, 1-(1-{4-[(4-bromo-2-fluorobenzyl)oxy]-3-chlorophenyl}-2-piperazin-1-ylethyl)cyclohexanol dihydrochloride] | 80%
CC(C)(CO)N1CCN(CC(c2cccc(OC(F)(F)F)c2)C2(O)CCCCC2)CC1 (stereo not drawn) [Example 373, 1-{2-[4-(2-hydroxy-1,1-dimethylethyl)piperazin-1-yl]-1-[3-(trifluoromethoxy)phenyl]ethyl}cyclohexanol dihydrochloride] | 90%
C[C@@H]1CCC(O)(C(CN2CCNCC2)c2cccc(OC(F)(F)F)c2)C1 (stereo partly drawn) [Example 394, (3R)-3-methyl-1-{2-piperazin-1-yl-1-[3-(trifluoromethoxy)phenyl]ethyl}cyclopentanol dihydrochloride] | 35%

Same assay, conditions: 10 μM test compound (stated in the cell), [3H]NE uptake

SMILES | inhibition at 10 µM
COc1ccc(C(CN2CCN(C)CC2)C2(O)CCCCC2)cc1-c1cccc(OC(F)(F)F)c1 (stereo not drawn) [Example 256, 1-[1-[6-methoxy-3′-(trifluoromethoxy)-1,1′-biphenyl-3-yl]-2-(4-methylpiperazin-1-yl)ethyl]cyclohexanol dihydrochloride] | 72.8%

Same assay, conditions: MDCK-Net6, read-out: % Inhibition @ 1 μM (hNET), 1 μM test compound, [3H]NE uptake

SMILES | inhibition at 1 µM
OC1(C(CN2CCNCC2)c2cccc(OC(F)(F)F)c2)CCCCC1 (stereo not drawn) [Example 23, 1-{2-piperazin-1-yl-1-[3-(trifluoromethoxy)phenyl]ethyl}cyclohexanol dihydrochloride] | 85%

Same assay, conditions: [3H]NE uptake, test range 1 to 10,000 nM

SMILES | EC50
OC1(C(CN2CCNCC2)c2cccc(OC(F)(F)F)c2)CCCCC1 (stereo not drawn) [Example 23, 1-{2-piperazin-1-yl-1-[3-(trifluoromethoxy)phenyl]ethyl}cyclohexanol dihydrochloride] | 350 nM

From patent US7550456B2, “Substituted aryl cycloalkanoyl derivatives and methods of their use” (Wyeth, priority 2003, dated 2009)
